According to paper PMC3152678 (Bioorganic & medicinal chemistry, 2011):

Legend:
[1] = target: T1, TraR (Agrobacterium tumefaciens, UniProt P33905); experiment: TraR antagonism assay in A. tumefaciens WCF; type: cell-based; conditions: 10 μM, in the presence of OOHL
[2] = type: physicochemical; conditions: Luria-Bertani medium, 37 °C; pseudo first-order
[3] = over the course of a week; cited from earlier work
[4] = target: T1, TraR; type: cell-based; conditions: dose response
[5] = target: T2, LasR (Pseudomonas aeruginosa, UniProt P25084); experiment: LasR reporter gene agonism assay in P. aeruginosa PA01 MW1; type: cell-based; conditions: P. aeruginosa LasR reporter strain
[6] = target: T2, LasR; experiment: LasR reporter gene agonism assay in E. coli DH5α; type: cell-based; conditions: E. coli LasR reporter strain
[7] = tested on: immune response; conditions: mice; cited from earlier work
[8] = target: T2, LasR; experiment: LasR reporter gene antagonism assay in E. coli DH5α; type: cell-based; conditions: E. coli reporter strain
[9] = target: LuxR (Aliivibrio fischeri, UniProt P35327); experiment: LuxR antagonism assay in V. fischeri ESI 114; type: cell-based, Vibrio fischeri
Sequence of LuxR (P35327 whole entry): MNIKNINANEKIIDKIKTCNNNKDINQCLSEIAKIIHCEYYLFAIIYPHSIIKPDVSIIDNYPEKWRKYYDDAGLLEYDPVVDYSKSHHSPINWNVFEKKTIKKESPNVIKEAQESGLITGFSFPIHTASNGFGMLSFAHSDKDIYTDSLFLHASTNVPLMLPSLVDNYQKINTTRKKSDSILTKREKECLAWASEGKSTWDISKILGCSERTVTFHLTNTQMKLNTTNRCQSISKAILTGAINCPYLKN

T1 sequence (P33905 whole entry): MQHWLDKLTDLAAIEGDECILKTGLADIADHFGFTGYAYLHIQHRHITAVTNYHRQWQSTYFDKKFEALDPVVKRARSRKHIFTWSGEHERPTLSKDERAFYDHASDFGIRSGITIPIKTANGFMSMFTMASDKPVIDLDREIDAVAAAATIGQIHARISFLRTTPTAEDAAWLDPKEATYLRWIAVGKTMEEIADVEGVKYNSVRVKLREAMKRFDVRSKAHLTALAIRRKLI
T2 sequence (P25084 whole entry): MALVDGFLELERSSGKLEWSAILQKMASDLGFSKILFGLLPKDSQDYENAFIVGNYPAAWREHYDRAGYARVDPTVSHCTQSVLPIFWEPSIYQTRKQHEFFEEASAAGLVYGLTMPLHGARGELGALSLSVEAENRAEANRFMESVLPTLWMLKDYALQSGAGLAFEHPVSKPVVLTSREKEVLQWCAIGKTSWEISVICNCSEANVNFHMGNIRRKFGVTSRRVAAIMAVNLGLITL

COc1ccc(CC(=O)NC2CCSC2=O)cc1 (stereo not shown) [Compound 28]
TraR agonism in the antagonism assay (more than OOHL alone) [1]: 24%

CCCCCCCCCC(=O)CC(=O)N[C@H]1CCOC1=O [OdDHL, N-(3-oxo)-dodecanoyl HL, reference compound]
slope of natural log of percent of positive control vs time [2]: −0.01399 ± 0.0006
racemization of the chiral center [3]: less than 5%

CCCCCC(=O)CC(=O)N[C@H]1CCSC1=O [Compound 18]
fold less active than OOHL (TraR agonism) [4]: 100 fold

O=C(Cc1ccc(Br)cc1)N[C@H]1CCSC1=O [Compound 31]
TraR agonism in the antagonism assay (more than OOHL alone) [1]: 60%

CCCC(=O)CC(=O)N[C@H]1CCSC1=O [Compound 12]
EC50 fold higher / fold less active than OdDHL, P. aeruginosa LasR [5]: ~ 10 fold
EC50 fold higher / fold less active than OdDHL, E. coli LasR [6]: ~ 10 fold

CCCCCC(=O)N[C@H]1CCSC1=O [Compound 20, N-hexanoyl thiolactone]
TraR agonism in the antagonism assay (more than OOHL alone) [1]: over 70%

COc1ccc(CC(=O)N[C@H]2CCSC2=O)cc1 [Compound 29]
agonistic activity in the TraR antagonism assay relative to OOHL [1]: 2 ×

CCCCCCCCCC(=O)CC(=O)N[C@H]1CCSC1=O [Compound 15]
slope of natural log of percent of positive control vs time [2]: −0.01025 ± 0.0004
times less of an immune response than the native OdDHL [7]: approximately 40 times

CCCCCCCC(=O)N[C@H]1CCSC1=O [Compound 22, N-octanoyl L-thiolactone]
fold higher concentration than OdDHL to antagonize LasR by 50% [8]: 10 fold
fold lower concentration than OHHL to antagonize LuxR by 50% [9]: 10 fold

CCCCCCCCCCCC(=O)N[C@H]1CCSC1=O [Compound 23, N-dodecanoyl thiolactone]
EC50 fold higher / fold less active than OdDHL, P. aeruginosa LasR [5]: ~ 10 fold
EC50 fold higher / fold less active than OdDHL, E. coli LasR [6]: ~ 100 fold

CCCC(=O)N[C@H]1CCSC1=O [Compound 19]
TraR agonism in the antagonism assay (more than OOHL alone) [1]: over 70%
